Tests used:
[1] = tested on: gubra DIO rats; conditions: gubra choice DIO model; cited from earlier work
[2] = in vivo; set-up: species or system sprague dawley rats; conditions: rat, sc; for AUC(0-t) / CL/F / Cmax / Tmax / half-life: female, Sprague Dawley
[3] = in vivo; set-up: species or system Crl:CD1(ICR) mice; conditions: mouse, sc
[4] = both, Crl:CD1(ICR) (CD-1), 625 nmol/kg

Row | Molecule | cumulative chow intake compared to controls [1] | decrease of cumulative gubra diet intake compared to controls [1] | AUC(0-t) ([2]; 31 nmol/kg) [µM·h] | CL/F ([2]; 31 nmol/kg) [mL/min/kg] | Cmax ([2]; 31 nmol/kg) [nM] | Tmax ([2]; 31 nmol/kg) [h] | half-life ([2]; 31 nmol/kg) [h] | AUC(0-t) ([2]; 104 nmol/kg) [µM·h] | CL/F ([2]; 104 nmol/kg) [mL/min/kg] | Cmax ([2]; 104 nmol/kg) [nM] | Tmax ([2]; 104 nmol/kg) [h] | half-life ([2]; 104 nmol/kg) [h] | T1/2 [2] [h] | AUC(0-inf) [3, 4] [µM·h] | CL/F [3, 4] [mL/min/kg] | Cmax [3, 4] [nM] | Tmax [3, 4] [h] | half-life [3, 4] [h] | T1/2 (elimination half-life) [3]
1 | liraglutide (HAEGTFTSDVSSYLEGQAAKEFIAWLVRGRG; chains of the INN, looked up) | approximately doubled | approximately 60% | – | – | – | – | – | – | – | – | – | – | – | – | – | – | – | – | –
2 | CC[C@H](C)[C@H](NC(=O)[C@H](CC(C)C)NC(=O)[C@H](Cc1c[nH]c2ccccc12)NC(=O)[C@H](CCC(N)=O)NC(=O)[C@@H](NC(=O)[C@H](Cc1ccccc1)NC(=O)[C@H](C)NC(=O)[C@H](CCCCNC(=O)COCCOCCNC(=O)COCCOCCNC(=O)CC[C@H](NC(=O)CCCCCCCCCCCCCCCCCCC(=O)O)C(=O)O)NC(=O)[C@H](CCC(N)=O)NC(=O)[C@H](C)NC(=O)[C@@H](NC(=O)[C@H](CCCCN)NC(=O)[C@H](CC(=O)O)NC(=O)[C@H](CC(C)C)NC(=O)C(C)(C)NC(=O)[C@@H](NC(=O)[C@H](CO)NC(=O)[C@H](Cc1ccc(O)cc1)NC(=O)[C@H](CC(=O)O)NC(=O)[C@H](CO)NC(=O)[C@@H](NC(=O)[C@H](Cc1ccccc1)NC(=O)[C@@H](NC(=O)CNC(=O)[C@H](CCC(=O)O)NC(=O)C(C)(C)NC(=O)[C@@H](N)Cc1ccc(O)cc1)[C@@H](C)O)[C@@H](C)O)[C@@H](C)CC)[C@@H](C)CC)C(C)C)C(=O)N[C@@H](C)C(=O)NCC(=O)NCC(=O)N1CCC[C@H]1C(=O)N[C@@H](CO)C(=O)N[C@@H](CO)C(=O)NCC(=O)N[C@@H](C)C(=O)N1CCC[C@H]1C(=O)N1CCC[C@H]1C(=O)N1CCC[C@H]1C(=O)N[C@@H](CO)C(N)=O [tirzepatide] | – | – | 3.74 | 0.139 | 127 | 12 | 9.3 | 10 | 0.172 | 310 | 12 | 10.3 | 10.3 | 71.7 | 0.145 | 2540 | 12 | 11.9 | approximately 12 hr

From publication PMC10362946 (Diabetes, obesity & metabolism, 2022)
